Measurements published in ChEMBL document CHEMBL1201862, “PubChem BioAssay data set” (2004).
The source made the active and inactive calls.

Assays:
[1] = target: Albumin (Bos taurus, UniProt P02769); assay: Counterscreen for inhibitors of T-cell receptor (TCR)-CD3 interaction: Fluorescence-based biochemical high throughput dose response assay to identify inhibitors of T-cell receptor (TCR)-CD3 interaction using a TAMRA-labeled BSA probe.; assay type: functional
[2] = HEK293T cytotoxicity, dose response, cytotoxicity control for miR-122 modulator project, cell-based, inhibitor set, cherry-pick, set 2 (AID 720697); assay type: functional
[3] = Counterscreen for inhibitors of Trypanosoma brucei methionyl tRNA synthetase (MetRS): Luminescence-based cell-based high throughput dose response assay to identify compounds that are cytotoxic to Jurkat human T lymphocyte cells.; assay type: functional
[4] = target: T1, Methionyl-tRNA synthetase, putative (Trypanosoma brucei brucei, UniProt Q38C91); assay type: functional, Trypanosoma brucei brucei strain 927/4 GUTat10.1
[5] = target: T1, Methionyl-tRNA synthetase, putative; assay type: functional, Trypanosoma brucei brucei strain 927/4 GUTat10.1; remark: listed apart in the source
[6] = HepG2 cell cytotoxicity, dose response, cytotoxicity control, ATP luminescence, cherry-pick, activator set 2 (AID 1053143); assay type: functional, cell-based
[7] = target: T2, Heat shock factor protein 1 (Mus musculus, UniProt P38532); assay: HSF1 potentiators in luciferase reporter cells, confirmation, cell-based, NIH3T3, luminescence, dose retest (AID 435004); assay type: functional;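 further: stress induced by proteasome inhibitor MG132 added 30 min after compound; luciferase reporter driven by HSF1 response element in NIH3T3 cells; actives raise luminescence as potentiators of the MG132 stress response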
T2 sequence (P38532 whole entry): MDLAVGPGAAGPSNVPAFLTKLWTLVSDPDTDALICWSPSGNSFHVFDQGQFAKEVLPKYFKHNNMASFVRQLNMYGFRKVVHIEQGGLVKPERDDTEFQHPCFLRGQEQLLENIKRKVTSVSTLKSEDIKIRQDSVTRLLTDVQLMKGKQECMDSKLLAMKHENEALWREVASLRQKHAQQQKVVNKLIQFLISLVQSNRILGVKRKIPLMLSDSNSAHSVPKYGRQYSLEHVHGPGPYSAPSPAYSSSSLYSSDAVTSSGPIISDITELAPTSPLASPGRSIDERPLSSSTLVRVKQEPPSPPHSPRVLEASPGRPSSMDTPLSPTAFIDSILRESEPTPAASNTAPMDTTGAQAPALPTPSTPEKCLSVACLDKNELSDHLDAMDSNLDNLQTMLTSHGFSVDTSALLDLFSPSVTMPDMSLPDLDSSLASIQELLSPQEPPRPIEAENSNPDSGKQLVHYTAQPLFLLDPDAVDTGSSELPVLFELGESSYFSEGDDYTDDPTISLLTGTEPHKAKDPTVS

[8] = target: T3, Streptokinase A (Streptococcus pyogenes serotype M1, UniProt P10520); assay: S. pyogenes streptokinase expression inhibitors, potency, dose response, plasminogen activation absorbance, OD405 (AID 1914); assay type: functional, Streptococcus pyogenes M1 GAS;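 further: secreted streptokinase activity via plasminogen activation per viability signal from cell pellet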
T3 sequence (P10520 whole entry): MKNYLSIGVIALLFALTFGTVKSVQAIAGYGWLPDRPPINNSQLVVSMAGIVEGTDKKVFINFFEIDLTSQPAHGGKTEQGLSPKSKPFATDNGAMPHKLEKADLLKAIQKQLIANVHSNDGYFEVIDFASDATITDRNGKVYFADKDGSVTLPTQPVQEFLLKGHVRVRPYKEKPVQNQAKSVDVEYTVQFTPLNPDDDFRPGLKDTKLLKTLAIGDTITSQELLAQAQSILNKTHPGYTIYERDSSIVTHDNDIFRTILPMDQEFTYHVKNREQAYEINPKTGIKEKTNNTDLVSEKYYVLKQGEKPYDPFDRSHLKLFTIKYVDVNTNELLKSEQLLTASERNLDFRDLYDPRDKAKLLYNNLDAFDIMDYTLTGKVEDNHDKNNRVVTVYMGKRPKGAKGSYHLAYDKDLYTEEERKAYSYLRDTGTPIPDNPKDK

[9] = test system: Streptococcus; assay: Group A Streptococcus viability loss, dose response, counter-screen for streptokinase expression inhibitor project, luminescence, BacTiterGlo (AID 1915); assay type: functional, organism-based;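 further: potency for reduction of bacterial viability or growth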
[10] = target: T4, Low molecular weight phosphotyrosine protein phosphatase (Homo sapiens, UniProt P24666); assay type: functional; settings: read-out: IC50_Mean
[11] = microbe, parasite or virus in culture; assay type: functional; settings: Mycobacterium tuberculosis
[12] = target: T4, Low molecular weight phosphotyrosine protein phosphatase; assay type: functional; settings: read-out: IC50_Mean; remark: listed apart in the source
[13] = target: Fructose-bisphosphate aldolase (Mycobacterium tuberculosis, UniProt P9WQA3); assay: Fluorescence-based biochemical high throughput dose response assay for inhibitors of the fructose-bisphosphate aldolase (FBA) of M. tuberculosis.; assay type: functional
[14] = cells
[15] = target: Major prion protein (Homo sapiens, UniProt P04156); assay type: functional, cell-based
[16] = target: T5, Probable nicotinate-nucleotide adenylyltransferase (Staphylococcus aureus (strain N315), UniProt P65502); assay type: functional, Staphylococcus aureus subsp. aureus N315; settings: read-out: IC50_Mean;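 on IC50 Mean: confirmatory dose-response retesting of NadD inhibitor hits first found in an ultra-high-throughput screen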
[17] = target: T5, Probable nicotinate-nucleotide adenylyltransferase; assay type: functional, Staphylococcus aureus subsp. aureus N315
[18] = target: Beta Lactamase (Pseudomonas aeruginosa, UniProt Q932Y6); assay: beta-lactamase reporter inhibitor potency, dose response, artefact control for TLR9-MyD88 binding inhibitor project, BLA reporter cells, FRET fluorescence (AID 588341); assay type: cell-based;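 further: cell based assay in CHO-K1 cells stably expressing beta-lactamase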
[19] = inhibitors of PGC1a acetylation in cells, dose response, cell-based, cherry-picked samples (AID 720514); assay type: functional;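 further: potency may reflect raised or lowered acetylation signal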
[20] = test system: CHO; assay: cytotoxicity in TLR9-MyD88 CHO cells, dose response, cytotoxicity control for TLR9-MyD88 binding inhibitor project, cell-based, luminescence (AID 588339); assay type: functional, hamster; settings: Cricetulus griseus;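 further: CHO cells stably coexpressing TLR9 and MyD88 fusions from primary screen; compound exposure lasted 48 hours before viability readout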
[21] = Late stage assay provider counterscreen for TLR9 inhibitors: absorbance-based cell-based MTT cytotoxicity assay.; assay type: functional
[22] = target: Photoreceptor-specific nuclear receptor (Homo sapiens, UniProt Q9Y5X4); assay type: functional, cell-based;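 further: CHO-S cells with Gal4-NCOR and VP16-NR2E3 two-hybrid luciferase reporter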
[23] = Fluorescence-based cell-based high throughput dose response assay for inhibitors of the interaction of nucleotide-binding oligomerization domain containing 2 (NOD2) and the receptor-interacting serine-threonine kinase 2 (RIPK2).; assay type: functional; settings: Homo sapiens
[24] = target: T6, Rac GTPase-activating protein 1 (Homo sapiens, UniProt Q9H0H5); assay: MgcRacGAP GTPase-activating activity inhibitors, confirmation, biochemical, ADP Hunter fluorescence, primary and confirmatory (AID 624330); assay type: functional
T6 sequence (Q9H0H5 whole entry): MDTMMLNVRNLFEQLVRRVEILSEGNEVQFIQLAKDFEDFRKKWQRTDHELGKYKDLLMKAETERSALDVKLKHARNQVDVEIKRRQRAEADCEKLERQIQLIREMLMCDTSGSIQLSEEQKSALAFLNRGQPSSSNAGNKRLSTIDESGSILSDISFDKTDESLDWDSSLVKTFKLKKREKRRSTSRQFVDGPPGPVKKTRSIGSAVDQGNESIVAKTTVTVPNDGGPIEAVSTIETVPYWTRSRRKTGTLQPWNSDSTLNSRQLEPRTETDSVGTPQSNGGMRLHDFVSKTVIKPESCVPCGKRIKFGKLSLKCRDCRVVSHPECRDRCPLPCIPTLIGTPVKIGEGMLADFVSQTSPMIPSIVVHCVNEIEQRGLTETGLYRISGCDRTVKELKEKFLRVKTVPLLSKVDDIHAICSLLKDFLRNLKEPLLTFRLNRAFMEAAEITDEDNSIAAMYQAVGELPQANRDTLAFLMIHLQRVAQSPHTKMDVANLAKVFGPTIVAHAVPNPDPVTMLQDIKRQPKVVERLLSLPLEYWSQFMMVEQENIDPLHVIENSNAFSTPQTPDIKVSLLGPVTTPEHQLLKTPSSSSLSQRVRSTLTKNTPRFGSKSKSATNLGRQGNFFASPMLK

With O=C(NNC(=S)NC1CCCCC1)c1ccccc1O the IC50 [1] was > 94.1 µM (inactive).

For CN(C(=O)c1ccccc1Cl)C1CCCCC1, the AC50 [2] was 0.346 µM (active).

For Cc1cc(Cn2nc(-c3ccccc3)cc2C(=O)NCc2cccc(Br)c2)on1, the IC50 [3] was 83.3 µM (inactive), the IC50 [4] was 2.08 µM (active) and the IC50 [5] was 5.75 µM (active).

For Cn1nnc(-c2ccc(OCc3ccccc3F)cc2)n1, the AC50 [6] was 26 µM (active), the EC50 [7] was > 260 µM (inactive) and the EC50 [8] was > 150 µM (not active). For the same compound, the EC50 [9] was > 150 µM (not active).

In the case of CC(C)Oc1ccc(-c2nc(NCC3CCCO3)c3ccccc3n2)cc1 (centres undefined), the IC50 [10] is reported as 24.2 µM (inactive), the CC50 [11] is reported as 29.2 µM (active) and the IC50 [12] is reported as 18.1 µM (active).

In the case of CNC(=O)c1cc2cc(OC)ccc2oc1=O, the IC50 [13] is reported as 2.13 µM (active).

For O=C(O)CCC(=O)NNC(=O)COc1ccc2ccccc2c1Br, the IC50 [14] was > 138 µM (inactive) and the IC50 [15] was 4.45 µM (active).

With Cc1ccc(C2(SCC(N)C(=O)O)c3ccccc3-c3ccccc32)cc1 (centres undefined) the IC50 [16] was 32.5 µM (active) and the IC50 [17] was 11 µM (active).

For COc1ccc(C[C@@H]2OC3(C=CC(=O)C=C3)O[C@H]2Cc2ccc(OC)cc2)cc1, the IC50 [18] was 17.5 µM (inactive), the AC50 [19] was 0.756 µM (active) and the IC50 [20] was 0.597 µM (active). For the same compound, the CC50 [21] was 0.48 µM (active) and the IC50 [22] was 0.149 µM (active).

In the case of O=C1/C(=C\c2ccccc2)CN(C(=O)CCN2CCCCC2)C/C1=C/c1ccccc1, the IC50 [23] is reported as 2.89 µM (active) and the IC50 [24] is reported as 84.9 µM (active).
